Data from ChEMBL document CHEMBL1275378, “Exploration of the active site of neuronal nitric oxide synthase by the design and synthesis of pyrrolidinomethyl 2-aminopyridine derivatives” (J Med Chem, 2010).

How the values were obtained:
[1] = Selectivity ratio of IC50 for rat recombinant nNOS to IC50 for mouse recombinant iNOS
[2] = Selectivity ratio of IC50 for rat recombinant nNOS to IC50 for bovine recombinant eNOS
[3] = biological target: T1, Nitric oxide synthase 3 (Bos taurus, UniProt P29473); test: Inhibition of bovine recombinant eNOS
T1 sequence (P29473 whole entry): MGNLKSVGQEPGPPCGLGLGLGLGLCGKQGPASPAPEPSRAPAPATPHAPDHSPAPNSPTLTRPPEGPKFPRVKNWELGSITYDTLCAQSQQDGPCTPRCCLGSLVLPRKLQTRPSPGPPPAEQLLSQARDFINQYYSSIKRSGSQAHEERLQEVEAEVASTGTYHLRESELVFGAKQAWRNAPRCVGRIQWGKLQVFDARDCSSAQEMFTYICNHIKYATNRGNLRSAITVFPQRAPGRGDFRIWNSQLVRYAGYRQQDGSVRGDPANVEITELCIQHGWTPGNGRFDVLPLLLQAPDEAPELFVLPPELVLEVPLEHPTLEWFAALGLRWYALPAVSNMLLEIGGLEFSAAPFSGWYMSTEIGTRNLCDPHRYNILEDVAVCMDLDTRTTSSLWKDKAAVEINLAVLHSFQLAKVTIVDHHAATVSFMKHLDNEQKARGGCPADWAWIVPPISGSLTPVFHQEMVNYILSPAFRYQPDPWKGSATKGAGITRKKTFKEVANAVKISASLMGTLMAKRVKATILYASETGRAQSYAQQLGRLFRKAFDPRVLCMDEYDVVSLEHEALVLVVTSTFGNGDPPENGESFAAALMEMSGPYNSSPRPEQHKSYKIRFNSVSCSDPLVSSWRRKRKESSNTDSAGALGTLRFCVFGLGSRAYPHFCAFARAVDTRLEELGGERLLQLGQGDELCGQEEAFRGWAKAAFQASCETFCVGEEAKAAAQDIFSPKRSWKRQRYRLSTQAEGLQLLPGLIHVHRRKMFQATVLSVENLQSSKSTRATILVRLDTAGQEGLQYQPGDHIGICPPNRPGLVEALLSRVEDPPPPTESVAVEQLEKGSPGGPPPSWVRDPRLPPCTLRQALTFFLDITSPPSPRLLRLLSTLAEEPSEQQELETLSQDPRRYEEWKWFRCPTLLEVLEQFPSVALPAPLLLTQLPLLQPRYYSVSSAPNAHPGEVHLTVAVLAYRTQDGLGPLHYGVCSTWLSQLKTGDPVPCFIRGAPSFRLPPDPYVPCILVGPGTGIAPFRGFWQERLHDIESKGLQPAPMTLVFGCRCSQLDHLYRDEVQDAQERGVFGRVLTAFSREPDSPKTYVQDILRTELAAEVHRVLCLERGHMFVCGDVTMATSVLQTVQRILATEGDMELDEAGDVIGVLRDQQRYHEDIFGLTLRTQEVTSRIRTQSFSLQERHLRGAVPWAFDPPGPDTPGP

**Q.** For `Cc1cc(N)nc(C[C@H]2CNC[C@@H]2NCCCO)c1` (racemic), which Ratio [1] is on record?
**A.** 8

**Q.** Which nNOS selectivity over eNOS (eNOS IC50 / nNOS IC50) [2] does the source give for `NCCN1C[C@H](Cc2cccc(N)n2)[C@H](NCCCc2ccccc2)C1` (racemic) here?
**A.** 2.5

**Q.** And the Ki [3]?
**A.** 122 µM

**Q.** What about the Ratio [1] of the same molecule?
**A.** 13

**Q.** With `NCCN1C[C@H](Cc2cccc(N)n2)[C@@H](NCCCc2ccccc2)C1` (racemic) as the molecule, how does the nNOS selectivity over eNOS (eNOS IC50 / nNOS IC50) [2] read?
**A.** 43

**Q.** What about the Ki [3] of the same molecule?
**A.** 173 µM

**Q.** And the Ratio [1]?
**A.** 110

**Q.** For `NCCN1C[C@H](Cc2cccc(N)n2)[C@H](NCCCO)C1` (racemic), which Ki [3] is on record?
**A.** 849 µM

**Q.** With `NCCN1C[C@H](Cc2cccc(N)n2)[C@@H](NCCCO)C1` (racemic) as the molecule, how does the Ki [3] read?
**A.** 1700 µM

**Q.** With `CN(C)CCN[C@H]1CNC[C@@H]1Cc1cccc(N)n1` (racemic) as the molecule, how does the nNOS selectivity over eNOS (eNOS IC50 / nNOS IC50) [2] read?
**A.** 15

**Q.** And the Ki [3]?
**A.** 242 µM

**Q.** What about the Ratio [1] of the same molecule?
**A.** 20

**Q.** Which nNOS selectivity over eNOS (eNOS IC50 / nNOS IC50) [2] does the source give for `Nc1cccc(C[C@H]2CNC[C@@H]2NCCNCc2ccccc2)n1` (racemic) here?
**A.** 201

**Q.** What about the Ki [3] of the same molecule?
**A.** 2910 µM

**Q.** What about the Ratio [1] of the same molecule?
**A.** 11.5

**Q.** For `Nc1cccc(C[C@H]2CNC[C@@H]2NC[C@H](N)Cc2ccccc2)n1` (racemic), which nNOS selectivity over eNOS (eNOS IC50 / nNOS IC50) [2] is on record?
**A.** 105

**Q.** And the Ki [3]?
**A.** 1450 µM

**Q.** What about the Ratio [1] of the same molecule?
**A.** 21.5

**Q.** Which results are given for `Nc1cccc(C[C@H]2CNC[C@@H]2NC[C@@H](N)Cc2ccccc2)n1` (racemic)?
**A.** nNOS selectivity over eNOS (eNOS IC50 / nNOS IC50) [2]: 71; Ki [3]: 1450 µM; Ratio [1]: 20

**Q.** What does the source list for `Nc1cccc(C[C@H]2CNC[C@@H]2N[C@H]2CCNC2)n1` (racemic)?
**A.** nNOS selectivity over eNOS (eNOS IC50 / nNOS IC50) [2]: 49; Ki [3]: 625 µM; Ratio [1]: 18

**Q.** What does the source list for `Nc1cccc(C[C@H]2CNC[C@@H]2N[C@@H]2CCNC2)n1` (racemic)?
**A.** nNOS selectivity over eNOS (eNOS IC50 / nNOS IC50) [2]: 22; Ki [3]: 460 µM; Ratio [1]: 12

**Q.** With `Nc1cccc(C[C@H]2CNC[C@@H]2N[C@H]2CCN(Cc3ccccc3)C2)n1` (racemic) as the molecule, how does the nNOS selectivity over eNOS (eNOS IC50 / nNOS IC50) [2] read?
**A.** 6

**Q.** What about the Ki [3] of the same molecule?
**A.** 109 µM

**Q.** What about the Ratio [1] of the same molecule?
**A.** 12

**Q.** For `Nc1cccc(C[C@H]2CNC[C@@H]2N[C@@H]2CCN(Cc3ccccc3)C2)n1` (racemic), which nNOS selectivity over eNOS (eNOS IC50 / nNOS IC50) [2] is on record?
**A.** 7

**Q.** And the Ki [3]?
**A.** 171 µM

**Q.** What about the Ratio [1] of the same molecule?
**A.** 12

**Q.** For `Cc1cc(N)nc(C[C@H]2CNC[C@@H]2NCCNCc2ccc(C(F)(F)F)cc2)c1` (racemic), which Ki [3] is on record?
**A.** 61.2 µM

**Q.** For `Cc1cc(N)nc(C[C@H]2CNC[C@@H]2NCCNCc2ccc(F)cc2)c1` (racemic), which nNOS selectivity over eNOS (eNOS IC50 / nNOS IC50) [2] is on record?
**A.** 90.5

**Q.** And the Ki [3]?
**A.** 78.8 µM

**Q.** And the Ratio [1]?
**A.** 31

**Q.** Which results are given for `Cc1cc(N)nc(C[C@H]2CNC[C@@H]2NCCNCc2cccc(C(F)(F)F)c2)c1` (racemic)?
**A.** nNOS selectivity over eNOS (eNOS IC50 / nNOS IC50) [2]: 147; Ki [3]: 109 µM; Ratio [1]: 79

**Q.** Which results are given for `Cc1cccc(CNCCN[C@H]2CNC[C@@H]2Cc2cc(C)cc(N)n2)c1` (racemic)?
**A.** nNOS selectivity over eNOS (eNOS IC50 / nNOS IC50) [2]: 306; Ki [3]: 202 µM; Ratio [1]: 127

**Q.** Which results are given for `Cc1cc(N)nc(C[C@H]2CNC[C@@H]2NCCNCc2ccc(Cl)c(Cl)c2)c1` (racemic)?
**A.** nNOS selectivity over eNOS (eNOS IC50 / nNOS IC50) [2]: 153; Ki [3]: 63.2 µM; Ratio [1]: 57

**Q.** With `Cc1cc(N)nc(C[C@H]2CNC[C@@H]2NCCNCc2ccc(Cl)cc2Cl)c1` (racemic) as the molecule, how does the nNOS selectivity over eNOS (eNOS IC50 / nNOS IC50) [2] read?
**A.** 158

**Q.** What about the Ki [3] of the same molecule?
**A.** 76.1 µM

**Q.** What about the Ratio [1] of the same molecule?
**A.** 92

**Q.** What does the source list for `Cc1cc(N)nc(C[C@H]2CNC[C@@H]2NC[C@H](C)NCc2ccc(Cl)cc2)c1` (racemic)?
**A.** nNOS selectivity over eNOS (eNOS IC50 / nNOS IC50) [2]: 28; Ki [3]: 16.5 µM; Ratio [1]: 35

**Q.** For `Cc1cc(N)nc(C[C@H]2CNC[C@H]2N(C)CCNCc2ccc(Cl)cc2)c1` (racemic), which Ki [3] is on record?
**A.** 58.1 µM

**Q.** For `Cc1cc(N)nc(C[C@H]2CNC[C@@H]2NCCNCCc2ccc(F)cc2)c1` (racemic), which nNOS selectivity over eNOS (eNOS IC50 / nNOS IC50) [2] is on record?
**A.** 370

**Q.** What about the Ki [3] of the same molecule?
**A.** 44.1 µM

**Q.** And the Ratio [1]?
**A.** 190

**Q.** With `Cc1cc(N)nc(C[C@H]2CNC[C@@H]2NCCCc2ccccc2)c1` (racemic) as the molecule, how does the nNOS selectivity over eNOS (eNOS IC50 / nNOS IC50) [2] read?
**A.** 6

**Q.** And the Ki [3]?
**A.** 85.2 µM

**Q.** And the Ratio [1]?
**A.** 11

**Q.** Which results are given for `Nc1cccc(C[C@H]2CNC[C@@H]2O)n1` (racemic)?
**A.** nNOS selectivity over eNOS (eNOS IC50 / nNOS IC50) [2]: 49; Ki [3]: 341 µM; Ratio [1]: 4

**Q.** Which Ki [3] does the source give for `Cc1cc(N)nc(C[C@H]2CNC[C@@H]2NCCN)c1` (racemic; form 1) [listing 1 of 2 here] here?
**A.** 866 µM

**Q.** For `Cc1cc(N)nc(C[C@H]2CNC[C@@H]2NCCN)c1` (racemic; form 1) [listing 2 of 2 here], which Ratio [1] is on record?
**A.** 9

**Q.** For `Cc1cc(N)nc(C[C@H]2CNC[C@@H]2NCCN)c1` (racemic; form 2) [listing 1 of 2 here], which Ki [3] is on record?
**A.** 263 µM

**Q.** For `Cc1cc(N)nc(C[C@H]2CNC[C@@H]2NCCN)c1` (racemic; form 2) [listing 2 of 2 here], which Ratio [1] is on record?
**A.** 52.5
